Laboratory results as given in patent US9663523B2, “BET protein-inhibiting 5-aryltriazoleazepines” (BAYER PHARMA AKTIENGESELLSCHAFT, priority 2012, dated 2017).

What was measured:
MOLM-13 cells = assay: Cell proliferation (alamarBlue), MOLM-13; assay type: cell-based; settings: Homo sapiens, acute myeloid leukaemia cell line, 96 hours incubation
In short: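 Cells seeded at 4000/well, fluorescence read after overnight at 37° C, then compound-treated for 96 h (MOLM-13, MDA-MB-231), 120 h (MOLP-8) or 168 h (LAPC-4). AlamarBlue fluorescence at start subtracted from end value and compared with buffer-treated cells.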

MOLP-8 cells = assay: Cell proliferation (alamarBlue), MOLP-8; assay type: cell-based; settings: Homo sapiens, multiple myeloma cell line, 120 hours incubation
MDA-MB-231 cells = assay: Cell proliferation (alamarBlue), MDA-MB-231; assay type: cell-based; settings: Homo sapiens, mammary carcinoma cell line, 96 hours incubation
Experimental: The ability of the compounds according to the invention to inhibit the proliferation of various cell lines was determined.
Cell viability was determined by means of the alamarBlue® reagent (Invitrogen). The cells were sown at different densities (MOLM-13, LAPC-4, MOLP-8 and MDA-MB-231: 4000 cells/well; B16F10: 400 cells/well) in 100 μl of growth medium on 96-well microtitre plates. After overnight incubation at 37° C., the fluorescence values (CI values) were determined. The plates were then treated with various substance dilutions and incubated at 37° C. for 96 hours (MOLM-13, MDA-MB-231 and B16F10 cells), 120 hours (MOLP-8 cells) or 168 hours (LAPC-4 cells). Subsequently, the fluorescence values were determined (CO values). For the data analysis, the CI values were subtracted from the CO values and the results were compared between cells which had been treated with various dilutions of the substance or only with buffer solution.
The compounds according to the invention were tested in the cell lines in Table 2, which represent the indications specified by way of example:
The indications corresponding to the different cell lines can be found in Table 2.

[1] = target: BRD4(1) (amino acids 44-168) (Homo sapiens (Human), UniProt O60885); assay: BRD4 binding strength, TR-FRET (HTRF) assay of BRD4(1) / acetylated histone H4 peptide interaction; settings: inhibition of BRD4(1)/Ac-H4 peptide interaction
B16F10 cells = assay: Cell proliferation (alamarBlue), B16F10; assay type: cell-based; settings: Mus musculus, B16-F10; melanoma cell line, 96 hours incubation
In short: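 Mouse B16F10 cells were plated at 400 cells/well in 100 μl of growth medium in 96-well microtitre plates and incubated overnight at 37° C. Initial fluorescence (CI) was then read with alamarBlue® reagent. Cells were exposed to serial compound dilutions for 96 hours at 37° C before final fluorescence (CO) was read. CI was subtracted from CO and compared with buffer-treated controls.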

LAPC-4 cells = assay: Cell proliferation (alamarBlue), LAPC-4; assay type: cell-based; settings: Homo sapiens, LAPC4; prostate carcinoma (androgen receptor-positive) cell line, 168 hours incubation

IC50 (MOLM-13 cells)	IC50 (MDA-MB-231 cells)	IC50 [1]	IC50 (B16F10 cells)	SMILES	IC50 (MOLP-8 cells)	IC50 (LAPC-4 cells)
> 10 µM	> 10 µM	1.4 µM	7.05 µM	Cc1nnc2n1-c1ccccc1C(c1ccc(Cl)cc1)=CC2CC(=O)N1CCC2(CCCC2)CC1 (stereo not drawn) [Example 28, 1-(8-azaspiro[4.5]dec-8-yl)-2-[6-(4-chlorophenyl)-1-methyl-4H-[1,2,4]triazolo[4,3-a][1]benzazepin-4-yl]ethanone]	6.3 µM	1.2 µM
0.83 µM	1.36 µM	0.04 µM	0.61 µM	Cc1nnc2n1-c1ccccc1C(c1ccc(Cl)cc1)=CC2CC(=O)N1CCC(=O)C1 (stereo not drawn) [Example 26, 1-{[6-(4-chlorophenyl)-1-methyl-4H-[1,2,4]triazolo[4,3-a][1]benzazepin-4-yl]acetyl}pyrrolidin-3-one]	0.38 µM	0.31 µM
